SMILES strings stand for the structures. pIC50: −log10 of the molar value.

The pIC50 is the IC50 on a negative log10 scale, so that one unit is a factor of ten. Broadly, the CC50 is the concentration at which the toxic effect on the cells reaches its halfway point.

The subject of series [1] is Leishmania amazonensis. In words: microbe, parasite or virus in culture. The note with it: MHOM/BR/71973/M2269, 72 h. Type of series: functional, organism-based.
Description: Leishmanicidal activity against Leishmania amazonensis MHOM/BR/71973/M2269 promastigotes assessed as reduction in surviving parasites incubated for 72 hrs by Neubauer's chamber based cell counting method
Series [2] relates to Leishmania amazonensis. In words: Leishmanicidal activity against Leishmania amazonensis MHOM/BR/71973/M2269 amastigotes infected in mouse peritoneal macrophages assessed as reduction in surviving parasites incubated for 72 hrs by Giemsa staining based optical light microscopy. In kind it is functional, organism-based. The note with it: MHOM/BR/71973/M2269, 72 h.
Series [3] can be described thus: Cytotoxicity against mouse peritoneal macrophages assessed as reduction in cell viability incubated for 72 hrs by MTT assay. Type of series: cell-based, Peritoneal macrophage cell. (In general: Tetrazolium assays rely on reduction of a dye to a coloured formazan, in cell work by metabolically active cells.)
Series [4] is described as follows: Selectivity index, ratio of CC50 for mouse peritoneal macrophages to IC50 for Leishmania amazonensis MHOM/BR/71973/M2269 amastigotes infected in mouse peritoneal macrophages. Type of series: functional.
Series [5] is described as follows: Inhibition of Leishmania mexicana cysteine protease r-CPB2.8 using Z-FR-AMC fluorogenic substrate by spectrofluorometry.
Series [6] relates to Salmonella typhimurium. In words: Mutagenicity in Salmonella typhimurium TA98 assessed as mutagenicity index at 10 ug/plate incubated for 90 mins at 37 degC in absence of liver S9 fractions by Ames test relative to control. In kind it is toxicity, organism-based. As to conditions: salmonella enterica subsp. enterica serovar typhimurium, 1.5 h.
Series [7] relates to Salmonella typhimurium. As to the kind of experiment: Mutagenicity in Salmonella typhimurium TA98 assessed as mutagenicity index at 10 ug/plate incubated for 90 mins at 37 degC in absence of liver S9 fractions by Ames test relative to untreated control. In kind it is toxicity, organism-based. As to conditions: salmonella enterica subsp. enterica serovar typhimurium, 1.5 h. For orientation: The Ames test uses bacterial strains that need an amino acid and regain growth without it when mutated back.

The subject of series [8] is Salmonella typhimurium. As to the kind of experiment: Mutagenicity in Salmonella typhimurium TA102 assessed as mutagenicity index at 5 ug/plate incubated for 90 mins at 37 degC in presence of liver S9 fractions by Ames test relative to untreated control. The note with it: salmonella enterica subsp. enterica serovar typhimurium, s9, 1.5 h. Type of series: toxicity, organism-based.

In series [9] the test system is Salmonella typhimurium. In words: Mutagenicity in Salmonella typhimurium TA102 assessed as number of revertants at 5 ug/plate incubated for 90 mins at 37 degC in presence of liver S9 fractions by Ames test relative to control. The note with it: salmonella enterica subsp. enterica serovar typhimurium, s9, 1.5 h.
Series [10] deals with Salmonella typhimurium. As to the kind of experiment: Mutagenicity in Salmonella typhimurium TA100 assessed as number of revertants at 5 ug/plate incubated for 90 mins at 37 degC in presence of liver S9 fractions by Ames test relative to untreated control. The note with it: salmonella enterica subsp. enterica serovar typhimurium, s9, 1.5 h.

`C[N+](C)(C)CCOP(=O)([O-])OCCCCCCCCCN=[N+]=[N-]` gave a negative logarithm of the IC50 (pIC50) in series [1] of 3.87.
On to `C[N+](C)(C)CCOP(=O)([O-])OCCCCCCCCCCCCN=[N+]=[N-]`, for which the pIC50 in [1] was 4.59; in series [2] it was 5.42; in series [5] it was 5.08. Moreover, in series [3], the CC50 at 72 h came out at 129 µM. In addition, the “Ratio CC50/IC50” value in series [4] is reported as 33.76.
In the same order, the values of `CS(=O)(=O)OCCCCCCCCCCCCn1cc(CCCOS(C)(=O)=O)nn1` are 5.40, 4.15, 5.34, 156 µM and 2.14.
For `CC(=O)OCCCc1cn(CCCCCCCCCCCCOS(C)(=O)=O)nn1`, the values for the pIC50 in [1], in series [2] and in [5] were 4.52, 4.25 and 5.99, respectively. Further, in series [3], the half-maximal cytotoxic concentration (CC50) at 72 h turned out to be 26.6 µM.
Regarding `CS(=O)(=O)OCCCCCCCCCn1cc(CCCO)nn1`, the pIC50 in [1] is 4.08.
Same read-out and setting: the result for `OCCCc1cn(CCCCCCCCCI)nn1` reads 4.17.
For `OCCCc1cn(CCCCCCCCCCCCI)nn1`, the pIC50 in series [1] is 4.72; in series [2], 4.63; in series [5], 5.91. Besides, the CC50 at 72 h in series [3] came out at 66.2 µM. Moreover, the “Ratio CC50/IC50” value in series [4] is 2.79.
In turn, `OCCCc1cn(CCCCCCCCCF)nn1` showed a pIC50 in [1] of 4.09.
In the case of `OCCCc1cn(CCCCCCCCCCCCF)nn1`, the pIC50 in series [1] was 4.43; in [2], 4.82; in [5] it was 5.65. Besides, in [3], the cytotoxic concentration (CC50) at 72 h turned out to be 163 µM. Also, in series [4], the “Ratio CC50/IC50” value stood at 9.83.
The molecule `CCOC(=O)c1cn(CCCCCCCCCCCCOS(C)(=O)=O)nn1` had a pIC50 in series [1] of 4.12.
`CS(=O)(=O)OCCCCCCCCCCCCn1cc(CO)nn1` gave a pIC50 in series [1] of 4.29.
With `CS(=O)(=O)OCCCCCCn1cc(CCCO)nn1`, the pIC50 in series [1] was 3.64.
On the same count and under the same terms, the result for `CS(=O)(=O)OCCCCCCCCCCCCn1cc(CCC(=O)O)nn1` reads 3.65; that for `CCOC(=O)c1cn(CCCCCCOS(C)(=O)=O)nn1`, 3.66.
`CCOC(=O)c1cn(CCCCCCCCCI)nn1` showed a pIC50 in series [1] of 4.32.
With `CCOC(=O)c1cn(CCCCCCCCCCCCI)nn1`, the negative logarithm of the IC50 (pIC50) in series [1] was 4.55; in series [2] it was 4.75; in [5] it was 5.22. In series [3], the CC50 at 72 h worked out at 93.4 µM. In [4], the “Ratio CC50/IC50” value is reported as 5.28.
With `Nc1ccc([N+](=O)[O-])cc1N`, the Activity_index in series [6] and in series [7] was 1350 throughout.
In the case of `Nc1ccc2cc3ccccc3cc2c1` [2-AMINOANTHRACENE], the Revertants in series [8] is 2510 revertants/plate; in [9], 2510 revertants/plate; in series [10], 1020 revertants/plate.
For the molecule `C[C@@H]1[C@H](O)[C@@H](C)/C=C/C=C/C=C/C=C/C=C/C=C/C=C/[C@H](O[C@@H]2O[C@H](C)[C@@H](O)[C@H](N)[C@@H]2O)C[C@@H]2O[C@](O)(C[C@@H](O)C[C@@H](O)[C@H](O)CC[C@@H](O)C[C@@H](O)CC(=O)O[C@H]1C)C[C@H](O)[C@H]2C(=O)O` [AMPHOTERICIN B], the pIC50 in series [1] is 5.33; in series [2] it was 5.21. In addition, the “Ratio CC50/IC50” value in series [4] was 4.44.
`CC(C)C[C@H](NC(=O)[C@H]1O[C@@H]1C(=O)O)C(=O)NCCCCN=C(N)N` [E-64]: the negative logarithm of the IC50 (pIC50) in [5] is 6.90.
In the case of `N=C(N)c1ccc(OCCCCCOc2ccc(C(=N)N)cc2)cc1` [PENTAMIDINE], in series [2], the pIC50 was 5.18. Besides, the “Ratio CC50/IC50” value in series [4] was 1.69.
